Reference: PMC10747599 (Viruses, 2023)

How the values were obtained:
[1] = tested on: SLEV infection in Vero CCL81 cells; assay type: cell-based, St. Louis encephalitis virus (SLEV BeH 355964); conditions: 20 µM
[2] = tested on: SLEV infection in Vero CCL81 cells; assay: microbe, parasite or virus in culture; assay type: cell-based, St. Louis encephalitis virus (SLEV BeH 355964); conditions: for EC50: St. Louis encephalitis virus, 72 h
SLEV [3] = assay: Viral load by plaque-forming assay, SLEV-infected Vero CCL81; assay type: cell-based, St. Louis encephalitis virus (SLEV BeH 355964); conditions: Vero CCL81, MOI 0.1
SLEV [4] = assay: Viral load by plaque-forming assay, SLEV-infected HBEC-5i; assay type: cell-based, St. Louis encephalitis virus (SLEV BeH 355964)
Huh-7 cells = assay: MTT cell viability assay, Huh-7; conditions: Huh-7, 48 h; for loss/reduction in cell viability vs vehicle-treated cells: 20 µM
[5] = MTT cell viability assay, HBEC-5i; conditions: human, HBEC-5i cells
[6] = Confirmatory dose-response assay, cytotoxicity (CC50); conditions: African green monkey, Vero CCL81 cells
Vero CCL81 cells [7] = assay: as above; conditions: Vero CCL81, dose-response 100 to 0.32 µM
HBEC-5i cells = assay: MTT cell viability assay, HBEC-5i; conditions: HBEC-5i; for reduction in cell viability / toxicity: 20 µM, 48 h; for toxicity at lower concentrations: 20 µM to 2.5 µM, MOI 0.1, 48 h (Figure 5)
Vero CCL81 cells [8] = assay: MTT cell viability assay, Vero CCL81
SLEV [9] = assay: Viral load by plaque-forming assay, SLEV-infected Huh-7; assay type: cell-based, St. Louis encephalitis virus (SLEV BeH 355964); conditions: Huh-7, MOI 0.1, 48 h

COc1cccc(-c2ccc(NC(=O)C3=C(C(=O)O)CCC3)c(F)c2)c1 [Vidofludimus]
inhibition of SLEV-induced CPE (hit call, cytoprotective effect) [1]: cytoprotective effect
EC50 [2]: 8.2 µM
reduction in viral load relative to vehicle-treated controls (SLEV [3]; 20 µM): approximately 10 fold
reduction in viral titers in culture supernatant (SLEV [4]; 20 µM, MOI 0.1, 48 h): No antiviral activity
loss/reduction in cell viability vs vehicle-treated cells (Huh-7 cells): approx. 10%
viability at 48 h, 20 µM [5]: ≤ 90%
CC50 at 72 h [6]: > 100 µM
CC50 (Vero CCL81 cells [7]): least cytotoxic

C[C@@H]1CCCN1CCc1cc2cc(-c3ccc(C#N)cc3)ccc2o1 [ABT-239, 4-(2-{2-[(2R)-2-Methylpyrrolidinyl]ethyl}-benzofuran-5-yl)benzonitrile]
inhibition of SLEV-induced CPE (hit call, cytoprotective effect) [1]: cytoprotective effect
EC50 [2]: 3.4 µM
reduction in viral load relative to vehicle-treated controls (SLEV [3]; 20 µM): approximately 10 fold
reduction in viral titers in culture supernatant (SLEV [4]; 20 µM, MOI 0.1, 48 h): approx. 10 fold
loss/reduction in cell viability vs vehicle-treated cells (Huh-7 cells): approx. 10%
reduction in cell viability / toxicity (HBEC-5i cells): not toxic
CC50 at 72 h [6]: 80.2 µM

FC(F)(F)c1ccc(CNc2ccc(Cc3c[nH]c4ncc(Cl)cc34)cn2)cn1 [Pexidartanib]
inhibition of SLEV-induced CPE (hit call, cytoprotective effect) [1]: cytoprotective effect

CC[C@@H]([C@H](C)O)n1ncn(-c2ccc(N3CCN(c4ccc(OC[C@@H]5CO[C@@](Cn6cncn6)(c6ccc(F)cc6F)C5)cc4)CC3)cc2)c1=O [Posaconazole]
inhibition of SLEV-induced CPE (hit call, cytoprotective effect) [1]: cytoprotective effect
EC50 [2]: 0.4 µM
Selectivity Index (SI, CC50/EC50 ratio) ([2]; Vero CCL81): ≥ 12
loss/reduction in cell viability vs vehicle-treated cells (Huh-7 cells): 50%
reduction in cell viability / toxicity (HBEC-5i cells): approximately 70%
reduction in cell viability (Vero CCL81 cells [8]; 20 µM, Vero CCL81, vs non-treated controls): 40%
CC50 at 72 h [6]: > 100 µM
CC50 (Vero CCL81 cells [7]): least cytotoxic

C[C@@]1(O)[C@H](O)[C@@H](CO)O[C@H]1n1ccc2c(N)ncnc21 [7DMA, 7-deaza-2′-C-methyl-D-adenosine]
EC50 [2]: 5.1 µM
reduction in viral load relative to vehicle-treated controls (SLEV [3]; 40 µM (7DMA)): approximately 10 fold
reduction in viral load (SLEV [9]; 40 µM (7DMA)): 10 fold
reduction in cell viability vs vehicle-treated cells (Huh-7 cells; 40 µM (7DMA)): approx. 10%
reduction in cell viability (Vero CCL81 cells [8]; 40 µM (7DMA), Vero CCL81): less than 10%
CC50 at 72 h [6]: > 100 µM
CC50 (Vero CCL81 cells [7]): least cytotoxic

NCCc1cn(S(=O)(=O)c2c(Cl)nc3sccn23)c2ccccc12 [SAX-187]
inhibition of SLEV-induced CPE (hit call, cytoprotective effect) [1]: cytoprotective effect

CCN(CC)CCOc1ccc(C(O)(Cc2ccc(Cl)cc2)c2ccc(C)cc2)cc1 (stereo not shown) [Triparanol]
inhibition of SLEV-induced CPE (hit call, cytoprotective effect) [1]: cytoprotective effect
EC50 [2]: 0.9 µM
antiviral effect (viral load) (SLEV [4]; 2.5 µM, MOI 0.1, 48 h (Figure 5)): lost
antiviral effect (viral load) (SLEV [4]; 5 µM, MOI 0.1, 48 h (Figure 5)): lost
reduction in viral load vs vehicle-treated infected group (SLEV [4]; 10 µM, MOI 0.1, 48 h (Figure 5)): over 10 fold
loss/reduction in cell viability vs vehicle-treated cells (Huh-7 cells): 90%
toxicity at lower concentrations (HBEC-5i cells): not toxic
reduction in cell viability / toxicity (HBEC-5i cells): ~60%
CC50 at 72 h [6]: 18.5 µM

CCCCc1oc2ccccc2c1C(=O)c1cc(I)c(OCCN(CC)CC)c(I)c1 [Amiodarone]
inhibition of SLEV-induced CPE (hit call, cytoprotective effect) [1]: cytoprotective effect
reduction in viral load (SLEV [9]; 20 µM): not significant
reduction in viral titers in culture supernatant (SLEV [4]; 20 µM, MOI 0.1, 48 h): over 10 fold
loss/reduction in cell viability vs vehicle-treated cells (Huh-7 cells): approx. 10%

OCCN1CCN(CCCN2c3ccccc3Sc3ccc(C(F)(F)F)cc32)CC1 [Fluphenazine]
inhibition of SLEV-induced CPE (hit call, cytoprotective effect) [1]: cytoprotective effect
reduction in viral titers in culture supernatant (SLEV [4]; 20 µM, MOI 0.1, 48 h): > 100 fold
reduction in viral load (SLEV [4]; 20 µM, MOI 0.1, 48 h, concentration series (Figure 5)): over 50 fold
loss/reduction in cell viability vs vehicle-treated cells (Huh-7 cells): 90%
toxicity at lower concentrations (HBEC-5i cells): not toxic
reduction in cell viability / toxicity (HBEC-5i cells): not toxic
CC50 at 72 h [6]: 30.2 µM
